Here are results for 45 molecules from US8513260B2, “Pyrazinylpyrazoles” (Bayer CropScience AG, priority 2009, dated 2013).

A short description of series [1]: logP by HPLC on reversed-phase columns (C 18), EEC Directive 79/831 Annex V.A8. The settings on record: acidic range pH 2.7, 0.1% aqueous formic acid and acetonitrile; for log P: * LC-MS; for chromatographic logP: reversed-phase C18 HPLC column, pH 2.7, * LC-MS, read-out: log P. Format: physicochemical. An excerpt:
[table] The calibration is effected with unbranched alkan-2-ones (having 3 to 16 carbon atoms) with known logP values (logP values determined on the basis of the retention times by linear interpolation between two successive alkanones).

In series [2] the test system is caterpillars of the armyworm (Spodoptera frugiperda). Put plainly: Spodoptera frugiperda test (SPODFR spray treatment). Format: in vivo. The settings on record: maize leaf discs, after 7 days; for pest or weed control at 500 g/ha: Spodoptera frugiperda, foliar, 168 h, read-out: efficacy; for efficacy: 500 g/ha. The protocol:
Spodoptera frugiperda Test (SPODFR Spray Treatment) Solvent: 78.0 parts by weight of acetone • • 1.5 parts by weight of dimethylformamide Emulsifier: 0.5 part by weight of alkylaryl polyglycol ether To prepare an appropriate active ingredient preparation, 1 part by weight of active ingredient is mixed with the stated amounts of solvent and emulsifier, and the concentrate is diluted with emulsifier-containing water to the desired concentration. Discs of maize leaves (Zea mays) are sprayed with an active ingredient preparation of the desired concentration and, after drying, populated with caterpillars of the armyworm (Spodoptera frugiperda). After 7 days, the efficacy in % is determined. 100% means that all caterpillars have been killed; 0% means that none of the caterpillars have been killed.

The test system of series [3] is larvae of the mustard beetle (Phaedon cochleariae). Put plainly: Phaedon test (PHAECO spray treatment). Format: in vivo. The settings on record: Chinese cabbage discs, after 7 days; for pest or weed control at 500 g/ha: Phaedon cochleariae, 168 h, read-out: efficacy; for efficacy: 500 g/ha. How it is done: Phaedon Test ([…] Spray Treatment) Solvent: 78.0 parts by weight of acetone • • 1.5 parts by weight of dimethylformamide Emulsifier: 0.5 part by weight of alkylaryl polyglycol ether To prepare an appropriate active ingredient preparation, 1 part by weight of active ingredient is mixed with the stated amounts of solvent and emulsifier, and the concentrate is diluted with emulsifier-containing water to the desired concentration. Discs of Chinese cabbage (Brassica pekinensis) are sprayed with an active ingredient preparation of the desired concentration and, after drying, populated with larvae of the mustard beetle (Phaedon cochleariae). After 7 days, the efficacy in % is determined. 100% means that all beetle larvae have been killed; 0% means that none of the beetle larvae have been killed.

In series [4] the test system is red spider mite (Tetranychus urticae). As to the kind of experiment: Tetranychus test, OP-resistant (TETRUR spray treatment). Format: in vivo. The settings on record: bean leaf discs, after 6 days. How it is done: Tetranychus Test, OP-Resistant (TETRUR Spray Treatment)
Solvent: 78.0 parts by weight of acetone • • 1.5 parts by weight of dimethylformamide
Emulsifier: 0.5 part by weight of alkylaryl polyglycol ether
To prepare an appropriate active ingredient preparation, 1 part by weight of active ingredient is mixed with the stated amounts of solvent and emulsifier, and the concentrate is diluted with emulsifier-containing water to the desired concentration. Discs of bean leaves (Phaseolus vulgaris) infested by all stages of the red spider mite (Tetranychus urticae) are sprayed with an active ingredient preparation of the desired concentration. After 6 days, the efficacy in % is determined. 100% means that all spider mites have been killed; 0% means that none of the spider mites have been killed.

For the molecule `CCOc1nccnc1-n1nc(C(F)(F)F)c(-c2cc(Cl)cc(C(F)(F)F)c2)c1N(Cc1ccccc1)Cc1ccccc1` [Ex. 34], the “log P” value in series [1] was 7*. As for `COc1cc(-c2c(C(F)(F)F)nn(-c3nccnc3OC)c2N)cc(I)c1OC` [Ex. 147], the chromatographic logP in series [1] came to 3.47. As to `COc1nccnc1-n1nc(C(F)(F)F)c(-c2ccccc2I)c1N` [Ex. 138], the chromatographic logP in series [1] stood at 3.09.

On to `CCc1nn(-c2nccnc2OC)c(N)c1-c1cc(Cl)c(OC)c(OC)c1` [Ex. 161], for which the pest or weed control at 500 g/ha in series [2] and in series [3] was 100% each time. Also, in series [1], the chromatographic logP is 2.66.

For `CCOc1cc(-c2c(C(F)(F)F)nn(-c3nccnc3OC)c2N)ccc1OCC(F)(F)F` [Ex. 127], the values for the efficacy in series [4] (500 g/ha) and in series [3] were 90% and 100%, respectively. For `CCOc1nccnc1-n1nc(CC)c(-c2cc(Br)c3c(c2)OCO3)c1N` [Ex. 177], the chromatographic logP in series [1] was found to be 3.03. As for `COc1nccnc1-n1nc(C(F)(F)F)c(-c2ccc(N(C)C)c(Cl)c2)c1N` [Ex. 122], the efficacy in series [2] and in series [3] was 100% in each case.

As for `COc1nccnc1-n1nc(C(F)(F)F)c(-c2cccnc2Cl)c1N` [Ex. 57], in series [1], the chromatographic logP is 2.19. On to `C=C(C)CNc1c(-c2cc(Cl)cc(C(F)(F)F)c2)c(C(F)(F)F)nn1-c1nccnc1OC` [Ex. 96], for which the efficacy in series [4] (500 g/ha) amounted to 100%. Regarding `COc1nccnc1-n1nc(C(F)(F)F)c(-c2c(F)ccc(Cl)c2Cl)c1N` [Ex. 142], the chromatographic logP in series [1] was 3.31. In addition, the pest or weed control at 500 g/ha in series [3] came to 100%. In the case of `CCOc1cc(-c2c(C(F)(F)F)nn(-c3nccnc3OC)c2N)cc(Cl)c1OCC(F)(F)F` [Ex. 144], the efficacy in series [4] (500 g/ha), in series [2] and in series [3] was 100% in each case. Take `Nc1c(-c2cc(Cl)cc(C(F)(F)F)c2)c(C(F)(F)F)nn1-c1nccnc1C(F)(F)F` [Ex. 130]: the efficacy in series [2] and in series [3] was 100% in each case. Consider `COc1nccnc1-n1nc(C(F)(F)F)c(-c2ccc3c(c2)CCC(C)(C)O3)c1N` [Ex. 145], for which the efficacy in series [3] is listed as 100%.

Consider `COc1nccnc1-n1nc(C(F)(F)F)c(-c2ccccn2)c1N` [Ex. 49], for which the chromatographic logP in series [1] came to 2.59. For `Cc1nccnc1-n1nc(C(F)(F)F)c(-c2cc(Cl)cc(C(F)(F)F)c2)c1N` [Ex. 23], the efficacy in series [4] (500 g/ha) and in series [3] was 100% throughout. Regarding `COc1nccnc1-n1nc(C(F)(F)F)c(-c2cncc(Br)c2)c1N` [Ex. 50], the chromatographic logP in series [1] was 2.62. On to `COc1nccnc1-n1nc(C(F)(F)F)c(-c2ccccc2Br)c1N` [Ex. 137], for which the chromatographic logP in series [1] is 3. As to `COc1nccnc1-n1nc(C(F)(F)C(F)F)c(-c2cc(Cl)c3c(c2)OCO3)c1N` [Ex. 65], the efficacy turned out to be 90% in series [4] (500 g/ha), 100% in series [2] and 100% in series [3]. As for `COc1nccnc1-n1nc(C(F)(F)F)c(-c2cc3c(cc2Cl)OCO3)c1N` [Ex. 143], in series [1], the chromatographic logP is 2.86. With `COc1nccnc1-n1nc(C(F)(F)F)c(-c2ccc(Cl)cn2)c1N` [Ex. 53], the chromatographic logP in series [1] is 3.55. In the case of `CCOc1nccnc1-n1nc(C(F)(F)F)c(-c2cc(Cl)cc(C(F)(F)F)c2)c1N(Cc1ccc(OC)cc1)Cc1ccc(OC)cc1` [Ex. 43], the efficacy in series [2] and in series [3] was 100% in each case. For the molecule `CCc1nn(-c2nccnc2OC)c(N)c1-c1cc(Br)c2c(c1)OCO2` [Ex. 178], the chromatographic logP in series [1] worked out at 2.65.

Consider `COc1cc(-c2c(C(F)(F)C(F)F)nn(-c3nccnc3OC)c2N)cc(C(F)(F)F)c1OC` [Ex. 157], for which the efficacy in series [4] (500 g/ha), in series [2] and in series [3] was 100% each time. Consider `COc1ccc(-c2c(C(F)(F)F)nn(-c3nccnc3OC)c2N)c(Br)c1OC` [Ex. 128], for which the chromatographic logP in series [1] turned out to be 2.87. Consider `COc1nccnc1-n1nc(C(F)(F)C(F)F)c(-c2cc(Cl)c3c(c2)CCO3)c1N` [Ex. 66], for which the efficacy in series [4] (500 g/ha) came to 90%; in series [2], 100%; in series [3] it was 100%. For the molecule `COc1nccnc1-n1nc(C(F)(F)F)c(-c2cc(Cl)cc(C(F)(F)F)c2)c1N(C)C` [compound 107, 1-(3-methoxypyrazin-2-yl)-4-[3-chloro-5-(trifluoromethyl)phenyl]-3-(trifluoromethyl)-1H-pyrazole-5-dimethylamine], the “log P” value in series [1] is listed as 5.11*. For the same molecule, the efficacy in series [3] is 83%. For the molecule `COc1cc(-c2c(C(F)(F)F)nn(-c3nccnc3OC)c2N)ccc1OCC(F)(F)F` [Ex. 125], the efficacy in series [4] (500 g/ha) came to 90%; in series [3], 100%. As for `COc1cc(-c2c(C(F)(F)F)nn(-c3nccnc3OC)c2N)cc(I)c1OC` [Ex. 176], the “log P” value in series [1] is on record as 3.87*.

On to `COc1nccnc1-n1nc(C(F)(F)F)c(-c2cc(Cl)c(Cl)c(C(F)(F)F)c2)c1N` [Ex. 86], for which the efficacy in series [2] and in series [3] was 100% each time. `COc1nccnc1-n1nc(C(F)(F)F)c(-c2cc3c(c(C(F)(F)F)c2)OCCO3)c1N` [Ex. 173]: the efficacy in series [4] (500 g/ha) was 90%; in series [2], 100%; in series [3], 100%. `N#Cc1nccnc1-n1nc(C(F)(F)F)c(-c2cc(Cl)cc(C(F)(F)F)c2)c1N` [Ex. 27] came in with an efficacy in series [3] of 100%. `COc1nccnc1-n1nc(C2CC2)c(-c2cc(Cl)c3c(c2)OCO3)c1N` [Ex. 79]: the pest or weed control at 500 g/ha in series [2] and in series [3] was 100% throughout. Also, in series [1], the chromatographic logP was found to be 2.79.

In turn, `CC(C)Oc1nccnc1-n1nc(C(F)(F)F)c(-c2cc(Cl)cc(C(F)(F)F)c2)c1N` [Ex. 13] registered an efficacy in series [3] of 83%. On to `COc1nccnc1-n1nc(C(F)(F)F)c(-c2cc(Cl)c(Cl)c(Cl)c2)c1N` [Ex. 87], for which the pest or weed control at 500 g/ha in series [2] and in series [3] was 100% throughout. Also, the chromatographic logP in series [1] came to 4.35. For `COc1cc(-c2c(C(F)(F)F)nn(-c3nccnc3OC)c2N)cc(Cl)c1OCC(F)(F)F` [Ex. 134], the efficacy in series [2] and in series [3] was 100% throughout. Take `COc1nccnc1-n1nc(C(F)(F)C(F)(F)F)c(-c2ccc(Cl)nc2)c1N` [Ex. 58]: in series [1], the chromatographic logP is 3.14. With `COc1nccnc1-n1nc(C(F)(F)F)c(-c2cc(Cl)c(N(C)C)c(Cl)c2)c1N` [Ex. 121], the efficacy in series [4] (100 g/ha) came to 80%; in series [2], 100%; in series [3], 100%. For the molecule `CCOc1cc(-c2c(C(F)(F)F)nn(-c3nccnc3OC)c2N)cc(Br)c1OCC(F)(F)F` [Ex. 140], the efficacy in series [2] and in series [3] was 100% each time. In addition, the “log P” value in series [1] is recorded as 4.3*. For `COc1nccnc1-n1nc(C(F)(F)C(F)F)c(-c2cc(Cl)c(Cl)c(Cl)c2)c1N` [Ex. 116], the results for the efficacy in series [4] (500 g/ha), in series [2] and in series [3] were 90%, 100% and 100%, respectively.

Consider `COc1nccnc1-n1nc(C(F)(F)C(F)(F)F)c(-c2ccc(Cl)cn2)c1N` [Ex. 54], for which, in series [1], the chromatographic logP is 4.17. In the case of `Nc1c(-c2cc(Cl)cc(C(F)(F)F)c2)c(C(F)(F)F)nn1-c1nccnc1-n1ccnc1` [Ex. 44], the efficacy in series [2] and in series [3] was 100% each time.

Consider `COc1nccnc1-n1nc(C(F)(F)F)c(-c2cc(Cl)c(N(C)C)c(C(F)(F)F)c2)c1N` [Ex. 123], for which the efficacy in series [4] (500 g/ha) worked out at 80%; in series [2] it was 100%; in series [3] it was 100%. Molecule `CCOc1nccnc1-n1nc(C(F)(F)F)c(-c2cc(Cl)cc(C(F)(F)F)c2)c1NCc1ccccc1` [Ex. 35] showed an efficacy in series [4] (500 g/ha) of 90%. For the molecule `COc1nccnc1-n1nc(C(F)(F)F)c(-c2ncc(Cl)cc2Cl)c1N` [Ex. 52], the chromatographic logP in series [1] stood at 2.94. The pest or weed control at 500 g/ha in series [3] was 100%. For `COc1nccnc1-n1nc(C(F)(F)F)c(-c2cc(F)c(Cl)cc2Cl)c1N` [Ex. 166], the figures for the efficacy in series [4] (500 g/ha) and in series [3] were 90% and 100%, respectively.
